Assays:
[1] = xn = mol fraction of the nth substance listed; conditions: 100 kPa, Liquid; for speed of sound: Frequency=3 MHz, Single path-length method; for mass density: Vibrating tube method
[2] = refractive index (Na D-line) (dimensionless); xn = mol fraction of the nth substance listed; conditions: 100 kPa, Liquid, Standard Abbe refractometry

CN(C)CCOCCO [2-(2-dimethylaminoethoxy)ethanol] + C[S+](C)[O-]
Conditions	mass density, [1] [kg/m3]	refractive index, [2]	speed of sound, [1] [m/s]
293.15 K, x2 = 0	954	1.442	1403.6
293.15 K, x2 = 0.0984	962	1.444	1410.5
293.15 K, x2 = 0.2001	971	1.447	1417.2
293.15 K, x2 = 0.2995	981	1.449	1423.8
293.15 K, x2 = 0.4021	992	1.452	1431
293.15 K, x2 = 0.4992	1003	1.455	1439.1
293.15 K, x2 = 0.6003	1017	1.458	1448.2
293.15 K, x2 = 0.7006	1033	1.462	1458.4
293.15 K, x2 = 0.795	1051	1.467	1470.1
293.15 K, x2 = 0.8997	1074	1.472	1485.1
293.15 K, x2 = 0.9505	1087	1.476	1494.1
303.15 K, x2 = 0	946	1.438	1369.9
303.15 K, x2 = 0.0984	954	1.44	1377.3
303.15 K, x2 = 0.2001	963	1.443	1384
303.15 K, x2 = 0.2995	972	1.445	1390.2
303.15 K, x2 = 0.4021	983	1.448	1397.7
303.15 K, x2 = 0.4992	995	1.451	1405.5
303.15 K, x2 = 0.6003	1008	1.454	1414.5
303.15 K, x2 = 0.7006	1024	1.458	1425.1
303.15 K, x2 = 0.795	1041	1.462	1436.6
303.15 K, x2 = 0.8997	1064	1.468	1451.1
303.15 K, x2 = 0.9505	1077	1.471	1460.6
313.15 K, x2 = 0	938	1.435	1336.8
313.15 K, x2 = 0.0984	946	1.437	1344.1
313.15 K, x2 = 0.2001	954	1.439	1350.8
313.15 K, x2 = 0.2995	964	1.441	1357.1
313.15 K, x2 = 0.4021	975	1.444	1364.6
313.15 K, x2 = 0.4992	986	1.447	1372.4
313.15 K, x2 = 0.6003	999	1.45	1381.3
313.15 K, x2 = 0.7006	1015	1.454	1391.4
313.15 K, x2 = 0.795	1032	1.458	1403.2
313.15 K, x2 = 0.8997	1054	1.464	1417.6
313.15 K, x2 = 0.9505	1067	1.467	1427
323.15 K, x2 = 0	930	1.431	1303.9
323.15 K, x2 = 0.0984	937	1.433	1311.2
323.15 K, x2 = 0.2001	946	1.435	1318
323.15 K, x2 = 0.2995	955	1.437	1324.2
323.15 K, x2 = 0.4021	966	1.439	1331.8
323.15 K, x2 = 0.4992	977	1.442	1339.5
323.15 K, x2 = 0.6003	991	1.446	1348.4
323.15 K, x2 = 0.7006	1006	1.45	1358.4
323.15 K, x2 = 0.795	1023	1.454	1370.1
323.15 K, x2 = 0.8997	1045	1.459	1384.4
323.15 K, x2 = 0.9505	1057	1.461	1393.6

NCCO [2-aminoethan-1-ol] + C[S+](C)[O-]
Conditions	mass density, [1] [kg/m3]	refractive index, [2]	speed of sound, [1] [m/s]
293.15 K, x2 = 0	1016	1.455	1734.2
293.15 K, x2 = 0.1026	1026	1.457	1701.8
293.15 K, x2 = 0.2008	1035	1.46	1672.3
293.15 K, x2 = 0.2981	1043	1.462	1645.9
293.15 K, x2 = 0.3966	1051	1.465	1619.8
293.15 K, x2 = 0.4933	1059	1.467	1595.4
293.15 K, x2 = 0.6021	1068	1.469	1571.2
293.15 K, x2 = 0.6969	1076	1.472	1550.6
293.15 K, x2 = 0.7998	1083	1.474	1533.3
293.15 K, x2 = 0.9005	1092	1.476	1517.8
303.15 K, x2 = 0	1008	1.451	1702.2
303.15 K, x2 = 0.1026	1017	1.454	1669.2
303.15 K, x2 = 0.2008	1026	1.455	1639.1
303.15 K, x2 = 0.2981	1034	1.458	1611.9
303.15 K, x2 = 0.3966	1042	1.46	1585.5
303.15 K, x2 = 0.4933	1050	1.463	1561.2
303.15 K, x2 = 0.6021	1058	1.465	1537
303.15 K, x2 = 0.6969	1066	1.467	1516.6
303.15 K, x2 = 0.7998	1074	1.469	1499
303.15 K, x2 = 0.9005	1082	1.472	1484
313.15 K, x2 = 0	1000	1.447	1669.4
313.15 K, x2 = 0.1026	1009	1.45	1636.3
313.15 K, x2 = 0.2008	1017	1.452	1605.3
313.15 K, x2 = 0.2981	1025	1.454	1578.3
313.15 K, x2 = 0.3966	1033	1.456	1551.7
313.15 K, x2 = 0.4933	1041	1.458	1527.2
313.15 K, x2 = 0.6021	1049	1.461	1503
313.15 K, x2 = 0.6969	1057	1.463	1483.1
313.15 K, x2 = 0.7998	1064	1.465	1465.2
313.15 K, x2 = 0.9005	1072	1.468	1449.9
323.15 K, x2 = 0	992	1.443	1637.3
323.15 K, x2 = 0.1026	1001	1.446	1603.2
323.15 K, x2 = 0.2008	1009	1.449	1571.9
323.15 K, x2 = 0.2981	1017	1.45	1544.7
323.15 K, x2 = 0.3966	1024	1.452	1517.9
323.15 K, x2 = 0.4933	1031	1.454	1493.4
323.15 K, x2 = 0.6021	1039	1.457	1469.3
323.15 K, x2 = 0.6969	1047	1.459	1449.4
323.15 K, x2 = 0.7998	1054	1.461	1431.7
323.15 K, x2 = 0.9005	1062	1.463	1416.4

CN(C)CCCO [3-dimethylamino-1-propanol] + C[S+](C)[O-]
Conditions	mass density, [1] [kg/m3]	refractive index, [2]	speed of sound, [1] [m/s]
293.15 K, x2 = 0	885	1.437	1395.8
293.15 K, x2 = 0.0517	891	1.438	1397.6
293.15 K, x2 = 0.0986	898	1.439	1398.4
293.15 K, x2 = 0.1998	911	1.442	1401.4
293.15 K, x2 = 0.3	927	1.444	1405.2
293.15 K, x2 = 0.3998	944	1.447	1411.3
293.15 K, x2 = 0.5031	963	1.451	1418.8
293.15 K, x2 = 0.5988	983	1.455	1428.3
293.15 K, x2 = 0.6998	1007	1.46	1441.3
293.15 K, x2 = 0.7918	1032	1.465	1456
293.15 K, x2 = 0.899	1065	1.472	1478
293.15 K, x2 = 0.9494	1082	1.476	1489.6
303.15 K, x2 = 0	877	1.433	1358.8
303.15 K, x2 = 0.0517	883	1.434	1360.9
303.15 K, x2 = 0.0986	889	1.435	1361.8
303.15 K, x2 = 0.1998	903	1.437	1365.3
303.15 K, x2 = 0.3	918	1.44	1369.9
303.15 K, x2 = 0.3998	935	1.443	1375.7
303.15 K, x2 = 0.5031	954	1.447	1383.9
303.15 K, x2 = 0.5988	974	1.451	1393.6
303.15 K, x2 = 0.6998	998	1.456	1406.9
303.15 K, x2 = 0.7918	1023	1.46	1421.8
303.15 K, x2 = 0.899	1055	1.467	1444.5
303.15 K, x2 = 0.9494	1072	1.471	1455.9
313.15 K, x2 = 0	869	1.429	1322.1
313.15 K, x2 = 0.0517	875	1.43	1324.4
313.15 K, x2 = 0.0986	881	1.431	1325.4
313.15 K, x2 = 0.1998	895	1.433	1328.9
313.15 K, x2 = 0.3	910	1.436	1334.4
313.15 K, x2 = 0.3998	926	1.439	1340.7
313.15 K, x2 = 0.5031	946	1.443	1349.3
313.15 K, x2 = 0.5988	965	1.447	1359.3
313.15 K, x2 = 0.6998	989	1.451	1372.9
313.15 K, x2 = 0.7918	1013	1.456	1388.1
313.15 K, x2 = 0.899	1046	1.463	1410.9
313.15 K, x2 = 0.9494	1062	1.467	1422.3
323.15 K, x2 = 0	860	1.425	1285.7
323.15 K, x2 = 0.0517	867	1.426	1288.2
323.15 K, x2 = 0.0986	873	1.427	1289.5
323.15 K, x2 = 0.1998	886	1.429	1293.8
323.15 K, x2 = 0.3	901	1.432	1299.3
323.15 K, x2 = 0.3998	918	1.435	1306.1
323.15 K, x2 = 0.5031	937	1.439	1315.1
323.15 K, x2 = 0.5988	956	1.443	1325.5
323.15 K, x2 = 0.6998	980	1.447	1339.4
323.15 K, x2 = 0.7918	1004	1.452	1354.7
323.15 K, x2 = 0.899	1036	1.459	1377.6
323.15 K, x2 = 0.9494	1052	1.462	1389

— the NIST ThermoML archive (doi:10.1016/j.jct.2018.02.018)
